# Test results: ChEMBL document CHEMBL5252622, “Discovery of a brain-sparing GIRK1/4 inhibitor for pharmacological cardioversion of atrial fibrillation” (Bioorg Med Chem Lett, 2023)
# Calls of active or inactive are those of the source. No cut-off for these calls is given here.
# Tests used:
# Kir3.1/Kir3.4 = molecular target: T1, Kir3.1/Kir3.4 (Homo sapiens, UniProt P48544+P48549); test: Inhibition of recombinant human GIRK1/4 channel; format: protein-complex assay
# T1 sequence (P48549 whole entry): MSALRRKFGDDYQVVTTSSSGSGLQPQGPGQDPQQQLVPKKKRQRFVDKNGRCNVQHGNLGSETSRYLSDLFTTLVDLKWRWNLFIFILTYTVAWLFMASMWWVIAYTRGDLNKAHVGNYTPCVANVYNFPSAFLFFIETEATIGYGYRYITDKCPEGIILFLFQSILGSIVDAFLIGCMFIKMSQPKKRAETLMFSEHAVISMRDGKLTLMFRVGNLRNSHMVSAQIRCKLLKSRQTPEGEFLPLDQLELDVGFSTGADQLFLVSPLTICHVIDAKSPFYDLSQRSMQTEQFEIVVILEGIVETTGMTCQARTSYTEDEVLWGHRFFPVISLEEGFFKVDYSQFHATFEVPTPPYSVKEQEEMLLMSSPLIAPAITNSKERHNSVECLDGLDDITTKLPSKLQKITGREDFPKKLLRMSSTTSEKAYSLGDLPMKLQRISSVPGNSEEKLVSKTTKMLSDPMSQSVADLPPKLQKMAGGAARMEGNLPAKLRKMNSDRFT
# T1 sequence (P48544 whole entry): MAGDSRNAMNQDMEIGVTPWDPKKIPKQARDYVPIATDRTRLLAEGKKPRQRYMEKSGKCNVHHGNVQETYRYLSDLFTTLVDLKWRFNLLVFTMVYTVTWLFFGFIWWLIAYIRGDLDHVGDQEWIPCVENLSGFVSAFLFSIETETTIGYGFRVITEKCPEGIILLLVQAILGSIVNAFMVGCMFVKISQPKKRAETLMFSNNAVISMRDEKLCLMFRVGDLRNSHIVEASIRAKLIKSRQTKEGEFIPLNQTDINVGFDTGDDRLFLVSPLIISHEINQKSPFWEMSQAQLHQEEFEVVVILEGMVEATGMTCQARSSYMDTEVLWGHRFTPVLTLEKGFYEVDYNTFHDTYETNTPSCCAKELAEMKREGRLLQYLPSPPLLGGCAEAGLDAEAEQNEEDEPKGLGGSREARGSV
# [1] = Aqueous solubility of the compound at pH 6.8; format: physicochemical
# MDCK = test: Substrate activity at p-glycoprotein in MDCK cells overexpressing MDR1 assessed as efflux ratio of permeability from basolateral to apical side over apical to basolateral side; format: cell-based; conditions: Canis lupus familiaris
# [2] = Apparent permeability across apical to basolateral side in MDCK cells; format: ADME, cell-based, Canis lupus familiaris; conditions: dog
# [3] = molecular target: Kir3.1/Kir3.2 (Homo sapiens) (UniProt P48549+P48051); test: Inhibition of recombinant human GIRK1/2 channel; format: protein-complex assay
# [4] = Intrinsic clearance in human liver microsomes; format: ADME, Microsome; conditions: read-out: CLH
# [5] = Intrinsic clearance in rat liver microsomes; format: ADME, Microsome; conditions: read-out: CLH
# [6] = molecular target: Sodium channel protein type 5 subunit alpha (Homo sapiens, UniProt Q14524); test: Inhibition of recombinant human Nav1.5; format: toxicity
# [7] = molecular target: Voltage-dependent L-type calcium channel subunit alpha-1C (Homo sapiens, UniProt Q13936); test: Inhibition of recombinant human Cav1.2; format: toxicity
# [8] = molecular target: T2, Potassium voltage-gated channel subfamily KQT member 1 (Homo sapiens, UniProt P51787); test: Inhibition of recombinant human KCNQ1; format: toxicity
# T2 sequence (P51787 whole entry): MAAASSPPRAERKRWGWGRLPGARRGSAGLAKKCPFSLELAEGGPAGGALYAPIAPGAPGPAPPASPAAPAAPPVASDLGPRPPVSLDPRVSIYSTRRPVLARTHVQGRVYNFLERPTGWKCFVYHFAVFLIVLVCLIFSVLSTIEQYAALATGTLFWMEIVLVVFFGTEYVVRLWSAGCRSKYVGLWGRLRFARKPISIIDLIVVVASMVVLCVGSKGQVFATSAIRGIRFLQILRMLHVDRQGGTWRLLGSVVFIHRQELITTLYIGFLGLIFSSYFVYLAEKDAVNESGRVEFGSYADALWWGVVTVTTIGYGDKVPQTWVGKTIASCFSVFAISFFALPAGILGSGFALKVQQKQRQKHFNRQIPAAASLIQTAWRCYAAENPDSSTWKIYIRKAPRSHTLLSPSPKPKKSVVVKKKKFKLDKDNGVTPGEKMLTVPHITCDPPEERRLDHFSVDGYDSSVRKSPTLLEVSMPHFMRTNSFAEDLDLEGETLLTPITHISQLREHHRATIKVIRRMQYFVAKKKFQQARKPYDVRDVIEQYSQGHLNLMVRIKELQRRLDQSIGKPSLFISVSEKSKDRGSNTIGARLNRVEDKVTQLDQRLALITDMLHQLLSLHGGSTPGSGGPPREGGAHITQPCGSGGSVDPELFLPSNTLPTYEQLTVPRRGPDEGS
# [9] = molecular target: Voltage-gated inwardly rectifying potassium channel KCNH2 (Homo sapiens, UniProt Q12809); test: Inhibition of recombinant hERG in the presence of dofetilide by competitive binding assay; format: toxicity
# Voltage-gated inwardly rectifying potassium channel KCNH2, sequence (Q12809 whole entry): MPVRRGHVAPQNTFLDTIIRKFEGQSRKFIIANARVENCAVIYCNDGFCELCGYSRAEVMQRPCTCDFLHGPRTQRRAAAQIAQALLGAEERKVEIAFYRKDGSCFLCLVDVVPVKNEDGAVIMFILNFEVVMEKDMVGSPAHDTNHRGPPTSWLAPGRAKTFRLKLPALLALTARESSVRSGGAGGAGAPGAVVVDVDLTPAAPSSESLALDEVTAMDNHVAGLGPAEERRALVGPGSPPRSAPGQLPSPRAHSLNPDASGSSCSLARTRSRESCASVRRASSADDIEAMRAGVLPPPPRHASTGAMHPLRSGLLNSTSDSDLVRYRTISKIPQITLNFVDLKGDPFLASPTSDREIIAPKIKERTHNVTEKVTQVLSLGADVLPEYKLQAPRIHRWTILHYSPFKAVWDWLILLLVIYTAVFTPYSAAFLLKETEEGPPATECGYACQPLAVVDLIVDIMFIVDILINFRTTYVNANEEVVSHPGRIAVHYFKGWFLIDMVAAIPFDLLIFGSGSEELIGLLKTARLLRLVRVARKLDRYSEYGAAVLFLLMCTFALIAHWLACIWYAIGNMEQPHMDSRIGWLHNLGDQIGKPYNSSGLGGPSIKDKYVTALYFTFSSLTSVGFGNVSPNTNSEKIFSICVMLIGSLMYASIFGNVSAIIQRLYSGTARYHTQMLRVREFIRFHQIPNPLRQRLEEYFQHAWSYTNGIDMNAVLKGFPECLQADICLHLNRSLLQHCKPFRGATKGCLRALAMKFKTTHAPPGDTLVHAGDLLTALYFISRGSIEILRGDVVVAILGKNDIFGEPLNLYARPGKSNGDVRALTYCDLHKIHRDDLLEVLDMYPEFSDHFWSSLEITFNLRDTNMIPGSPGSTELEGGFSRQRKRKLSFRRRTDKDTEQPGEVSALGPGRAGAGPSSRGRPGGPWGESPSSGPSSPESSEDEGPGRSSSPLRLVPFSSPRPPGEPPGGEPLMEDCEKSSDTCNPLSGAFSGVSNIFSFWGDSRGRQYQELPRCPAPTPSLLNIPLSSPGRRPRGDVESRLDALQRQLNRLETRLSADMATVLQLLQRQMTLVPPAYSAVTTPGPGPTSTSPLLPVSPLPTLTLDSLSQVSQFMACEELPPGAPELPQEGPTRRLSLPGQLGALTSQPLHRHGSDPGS
# Sodium channel protein type 5 subunit alpha, sequence (Q14524 whole entry): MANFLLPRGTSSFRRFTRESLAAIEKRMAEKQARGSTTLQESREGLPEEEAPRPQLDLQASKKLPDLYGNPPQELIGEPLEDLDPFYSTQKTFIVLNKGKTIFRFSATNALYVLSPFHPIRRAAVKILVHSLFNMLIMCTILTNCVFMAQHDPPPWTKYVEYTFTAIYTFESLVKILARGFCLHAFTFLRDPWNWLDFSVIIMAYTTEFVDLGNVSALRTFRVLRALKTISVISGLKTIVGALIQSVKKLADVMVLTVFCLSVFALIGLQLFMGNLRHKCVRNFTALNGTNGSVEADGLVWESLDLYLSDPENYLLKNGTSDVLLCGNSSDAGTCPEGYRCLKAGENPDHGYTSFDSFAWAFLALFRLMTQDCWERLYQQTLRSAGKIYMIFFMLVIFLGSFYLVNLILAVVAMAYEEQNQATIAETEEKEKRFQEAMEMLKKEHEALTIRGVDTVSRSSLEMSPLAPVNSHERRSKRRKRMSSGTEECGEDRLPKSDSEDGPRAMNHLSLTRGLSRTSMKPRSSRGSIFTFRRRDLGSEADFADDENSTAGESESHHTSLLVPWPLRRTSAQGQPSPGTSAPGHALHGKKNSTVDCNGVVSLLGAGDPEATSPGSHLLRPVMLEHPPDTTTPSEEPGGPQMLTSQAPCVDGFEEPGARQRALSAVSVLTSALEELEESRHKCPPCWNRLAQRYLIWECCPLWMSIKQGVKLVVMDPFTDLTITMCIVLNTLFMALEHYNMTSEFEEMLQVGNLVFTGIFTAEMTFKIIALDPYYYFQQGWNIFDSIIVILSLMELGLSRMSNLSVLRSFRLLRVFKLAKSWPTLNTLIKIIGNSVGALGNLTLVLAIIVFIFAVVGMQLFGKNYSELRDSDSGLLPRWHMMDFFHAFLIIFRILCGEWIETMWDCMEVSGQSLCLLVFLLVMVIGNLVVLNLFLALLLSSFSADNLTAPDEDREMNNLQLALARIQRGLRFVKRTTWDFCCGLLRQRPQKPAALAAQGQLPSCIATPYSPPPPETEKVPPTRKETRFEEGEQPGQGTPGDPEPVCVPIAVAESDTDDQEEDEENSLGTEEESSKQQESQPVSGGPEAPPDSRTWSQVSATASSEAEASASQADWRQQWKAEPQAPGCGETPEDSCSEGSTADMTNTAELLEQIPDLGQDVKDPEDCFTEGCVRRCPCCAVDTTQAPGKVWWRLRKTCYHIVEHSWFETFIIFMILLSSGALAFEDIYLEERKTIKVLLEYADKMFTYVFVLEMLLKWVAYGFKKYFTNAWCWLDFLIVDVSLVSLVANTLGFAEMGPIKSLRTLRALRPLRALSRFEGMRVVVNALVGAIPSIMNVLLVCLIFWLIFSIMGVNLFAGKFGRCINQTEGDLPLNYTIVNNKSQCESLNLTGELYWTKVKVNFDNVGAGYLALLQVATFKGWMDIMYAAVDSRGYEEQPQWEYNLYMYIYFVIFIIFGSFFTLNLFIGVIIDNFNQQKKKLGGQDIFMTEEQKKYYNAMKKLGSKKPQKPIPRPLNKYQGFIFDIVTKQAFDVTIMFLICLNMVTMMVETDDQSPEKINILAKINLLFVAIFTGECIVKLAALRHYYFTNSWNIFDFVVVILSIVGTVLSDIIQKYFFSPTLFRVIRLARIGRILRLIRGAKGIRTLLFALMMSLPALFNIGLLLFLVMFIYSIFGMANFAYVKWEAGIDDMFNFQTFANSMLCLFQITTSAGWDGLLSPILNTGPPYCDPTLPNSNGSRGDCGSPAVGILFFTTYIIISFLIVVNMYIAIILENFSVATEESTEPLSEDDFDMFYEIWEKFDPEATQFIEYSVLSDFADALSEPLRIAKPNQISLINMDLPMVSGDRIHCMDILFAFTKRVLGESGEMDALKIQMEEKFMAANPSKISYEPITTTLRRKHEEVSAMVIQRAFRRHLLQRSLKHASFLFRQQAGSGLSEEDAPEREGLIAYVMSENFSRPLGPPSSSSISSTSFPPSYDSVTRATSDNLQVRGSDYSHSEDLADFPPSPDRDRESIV
Compound,IC50 (Kir3.1/Kir3.4) [nM],solubility [1] [µM],Papp A→B [2] [×10⁻⁶ cm/s],inhibition [3],microsomal CLint [4] [µL/min/mg],microsomal CLint [5] [µL/min/mg],Ratio (MDCK),IC50 [6] [nM],IC50 [7] [nM],IC50 [8] [nM],IC50 [9] [nM]
CS(=O)(=O)CCCOc1ncc(Cl)c2c1c(=O)cc(CO)n2-c1c(Cl)cccc1Cl,100,500,10.1,,,,40.7,,,,
COc1ncc(Cl)c2c1c(=O)cc(CO)n2-c1c(Cl)cccc1Cl,27,89,22.6,,,,2.7,,,,
CSc1c(C#N)c(=O)c2ccc(F)cc2n1-c1c(Cl)cccc1Cl,50,13,,inactive,77,236,,> 50000,24200,33000,> 30000
Cc1cc(=O)c2c(F)cncc2n1-c1c(Cl)cc(C#CCN2CCOCC2)cc1Cl,220,240,20.4,,,,1.1,,,,
O=c1cc(CO)n(-c2c(Cl)cccc2Cl)c2c(Cl)cnc(OC[C@@H](O)CO)c12,150,,5,,,,10.6,> 50000,> 50000,> 50000,> 50000
O=c1cc(CO)n(-c2c(Cl)cccc2Cl)c2c(Cl)cnc(OC(CO)CO)c12,250,300,6.9,,,,18.3,,,,

# Second part, led by results:
IC50 (Kir3.1/Kir3.4) [nM],solubility [1] [µM],Papp A→B [2] [×10⁻⁶ cm/s],inhibition [3],microsomal CLint [4] [µL/min/mg],microsomal CLint [5] [µL/min/mg],Compound,Ratio (MDCK),IC50 [6] [nM],IC50 [7] [nM],IC50 [8] [nM],IC50 [9] [nM]
,720,7.5,,,,Cc1cc(=O)c2c(OCC(O)COCC(O)CO)ncc(Cl)c2n1-c1c(Cl)cccc1Cl (configuration not stated),15,,,,
290,280,8.5,,,,COc1ncc(C)c2c1c(=O)cc(CO)n2-c1c(Cl)cccc1Cl,,,,,
140,170,26.6,,,,Cc1cc(=O)c2c(F)cncc2n1-c1c(Cl)cc(C#CCO)cc1Cl,1.7,,,,
